# Laboratory results taken from patent publication US20160052937A1, “Tetrahydroimidazo[1,5-d][1,4]oxazepine compound” (Eisai R&D Management Co., Ltd., priority 2014, published 2016).
# What was measured:
# [1] = test system: Long-Evans rats, cognitive impairment induced by scopolamine; assay: Novel object recognition (NOR) test in rats; assay type: in vivo, rat; conditions: oral; scopolamine hydrobromide 0.3 mg/kg i.p.; statistically significant difference in discrimination index vs scopolamine alone group
# Method: Six-week old male Long-Evans rats were used for this test. For 2 days before starting the test, the rats were acclimated to experimental operations such as administration and a test device (that is, a black or gray plastic cage with a width of 40 cm, a depth of 30 cm and a height of 45 cm). Each test compound was dissolved in a 0.1 N hydrochloric acid to be orally administered. Thirty minutes after the administration, scopolamine hydrobromide was intraperitoneally administered at a 0.3 mg/kg dose, so as to induce cognitive impairment. After another 30 minutes, each rat was acclimated in the test device for 3 minutes, and thereafter, two blocks in the same shape were put in the test device as acquisition trial, and exploring time for each block was measured for 5 minutes. Two hours after the acquisition trial, the rat was acclimated in the test device for 3 minutes, and thereafter, the same block as those used in the acquisition trial and a new block in a different shape were put in the cage for retention trial. The exploring time for each block was measured for 3 minutes, and a ratio of the exploring time for the newly used block to the sum of the exploring times for the respective blocks was calculated as a discrimination index. The thus obtained discrimination indexes were compared among a group of rats to which a medium alone was administered (medium group), a group of rats to which scopolamine alone was administered (scopolamine alone group) and a group of rats to which both the test compound and scopolamine were administered, so as to evaluate the action of the test compound on the novel object recognition function (cognitive function) of the rats.
# Each discrimination index was shown as an average and a standard error. The statistical significance between the medium group and the scopolamine alone group was analyzed by the independent t-test. The statistical significance between the scopolamine alone group and each sample group was analyzed by one-way analysis of variance and then by Dunnett's multiple comparison test. The significance level was set to 5% on both sides. […] The analysis was carried out by using Prism 5 for Windows for Japanese, ver. 5.03. A minimum effective dose at which a statistically significant difference was found between a group suffering from the cognitive impairment induced by scopolamine and a group treated with each compound is shown in Table 4.
# [2] = target: T1, human metabotropic glutamate receptor 2 (mGluR2) (Homo sapiens, UniProt Q14416); assay: [35S]GTPγS binding assay (Affinity to mGluR2); assay type: biochemical; conditions: cell membrane fraction of HEK293 cells stably expressing human mGluR2; glutamic acid 10 μM
# T1 construct: expressed in transfected cells; co-expressing human SLC1A3), cell membrane fraction
# Method: (Preparation of Cell Membrane Fraction of HEK293 Cells Stably Expressing Human Metabotropic Glutamate Receptor 2 (mGluR2))
# HEK293 cells stably expressing human mGluR2 and human glutamate transporter SLC1A3 were cultured in a Dulbecco's modified Eagle's medium with 10% fetal bovine serum (50 units/mL of penicillin, 50 μg/mL of streptomycin, 60 μg/mL of geneticin, 400 μg/mL of hygromycin B and 2 mM of glutamine) at 37° C. under 5% CO2. Confluent cell cultures were washed twice with PBS(−), and then scraped off with a cell scraper, and subjected to centrifugal separation at 4° C. and 1500 rpm for 5 minutes for collecting cells. The centrifuged sediment (cell pellet) was homogenized in a 20 mM HEPES buffer containing 10 mM EDTA (pH 7.4) by using sonicator and centrifuged at 4° C. and 1500×g for 30 minutes. The supernatant (soluble fraction) was subjected to the centrifugal separation at 4° C. and 40,000×g for 30 minutes, and thus, insoluble fraction was obtained. After additional centrifugally washing the obtained fraction with 20 mM HEPES buffer containing 10 mM EDTA (pH 7.4), the pellet was centrifugally suspended with a 20 mM HEPES buffer containing 0.1 mM EDTA, and the cell membrane fraction was obtained by the centrifugal separation at 4° C. and 40,000×g for 30 minutes. The thus obtained cell membrane fraction was suspended in a 20 mM HEPES buffer containing 0.1 mM EDTA in a protein concentration of 3 mg/mL, which was stored at −80° C.
# ([^35S]GTPγS binding assay)
# The frozen cell membrane fraction prepared as described above was thawed before use, and the resultant was diluted with a buffer for a binding assay (final concentrations: 20 mM HEPES, 100 mM NaCl, 1 mM MgCl2, 3 μM GDP, 300 μg/mL saponin, 0.1% BSA). The compound of each example was added to a cell membrane fraction containing 1.8 to 3 μg/assay of membrane protein on a plate, followed by incubation at room temperature for 30 minutes. Thereafter, with glutamic acid (in a final concentration of 10 μM) added thereto, incubation was performed at room temperature for 15 minutes, and thereafter, [^35S]GTPγS (in a final concentration of 0.8 kBq) and 588 μg WGA-SPA beads were added thereto, followed by incubation at room temperature for 1 hour. After the incubation, the plate was subjected to the centrifugal separation at 2,500 rpm and room temperature, and then, membrane cell binding radioactivity was measured with a top count.
# A [^35S]GTPγS binding amount obtained by performing the above-described reaction in the absence of glutamic acid was defined as nonspecific binding, and a difference from a [^35S]GTPγS binding amount obtained in the presence of glutamic acid was defined as specific binding. On the basis of ratios of inhibiting the specific binding at various concentrations of the compounds of the respective examples, inhibition curves were obtained. Concentrations of the compounds of the respective examples at which the specific [^35S]GTPγS binding amount was suppressed by 50% (IC50 values) were calculated on the basis of the inhibition curves and shown in Table 3.
# T1 sequence (Q14416 19-872): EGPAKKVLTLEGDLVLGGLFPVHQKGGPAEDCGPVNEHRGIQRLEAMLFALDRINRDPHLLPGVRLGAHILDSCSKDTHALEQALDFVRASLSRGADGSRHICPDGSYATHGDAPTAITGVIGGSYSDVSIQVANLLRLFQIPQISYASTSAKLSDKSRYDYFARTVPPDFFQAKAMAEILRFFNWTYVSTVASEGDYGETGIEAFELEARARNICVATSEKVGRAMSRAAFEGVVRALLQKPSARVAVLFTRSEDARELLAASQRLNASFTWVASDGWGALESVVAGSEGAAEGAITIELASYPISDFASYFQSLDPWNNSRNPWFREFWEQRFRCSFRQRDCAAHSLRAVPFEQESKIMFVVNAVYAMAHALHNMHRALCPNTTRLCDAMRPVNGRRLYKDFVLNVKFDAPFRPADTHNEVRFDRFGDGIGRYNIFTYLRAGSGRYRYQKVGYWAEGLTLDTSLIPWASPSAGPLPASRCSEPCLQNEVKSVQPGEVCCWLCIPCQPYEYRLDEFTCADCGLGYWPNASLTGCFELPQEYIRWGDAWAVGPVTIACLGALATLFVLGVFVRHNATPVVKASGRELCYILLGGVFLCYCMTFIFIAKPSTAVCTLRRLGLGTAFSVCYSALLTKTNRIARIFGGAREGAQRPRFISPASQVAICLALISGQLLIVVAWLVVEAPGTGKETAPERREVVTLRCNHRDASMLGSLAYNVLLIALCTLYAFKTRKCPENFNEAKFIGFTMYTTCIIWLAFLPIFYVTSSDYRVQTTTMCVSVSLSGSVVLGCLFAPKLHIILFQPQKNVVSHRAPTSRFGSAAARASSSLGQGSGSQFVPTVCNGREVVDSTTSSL
Compound,Minimum effective dose [1],IC50 [2]
"CC(C)NS(=O)(=O)c1ccc(-c2nc(-c3ccc(F)cc3)n3c2CCO[C@H](C)C3)cc1 [Example 1, (R)-4-(3-(4-fluorophenyl)-6-methyl-5,6,8,9-tetrahydroimidazo[1,5-d][1,4]oxazepin-1-yl)-N-isopropylbenzenesulfonamide]","1 mg/kg, p.o.",3.7 nM
"COc1ccc(-c2nc(-c3ccc(S(=O)(=O)NC(C)(C)C)cc3)c3n2C[C@@H](CF)OCC3)cc1 [Example 2, (S)—N-(tert-butyl)-4-(6-(fluoromethyl)-3-(4-methoxyphenyl)-5,6,8,9-tetrahydroimidazo[1,5-d][1,4]oxazepin-1-yl)benzenesulfonamide]","3 mg/kg, p.o.",3.1 nM
"COc1ccc(-c2nc(-c3ccc(S(=O)(=O)NC4CCC4)cc3)c3n2C[C@@H](C)OCC3)cc1 [Example 3, (R)—N-cyclobutyl-4-(3-(4-methoxyphenyl)-6-methyl-5,6,8,9-tetrahydroimidazo[1,5-d][1,4]oxazepin-1-yl)benzenesulfonamide]","1 mg/kg, p.o.",5 nM
"COc1ccc(-c2nc(-c3ccc(S(=O)(=O)NC(C)C)cc3)c3n2C[C@@H](C)OCC3)cc1 [Example 8, (R)—N-isopropyl-4-(3-(4-methoxyphenyl)-6-methyl-5,6,8,9-tetrahydroimidazo[1,5-d][1,4]oxazepin-1-yl)benzenesulfonamide]","3 mg/kg, p.o.",3.1 nM
CCNS(=O)(=O)c1ccc(-c2nc(-c3ccc(OC(F)F)cc3)n3c2CCO[C@H](CF)C3)cc1 [Example 59],,3.9 nM
O=S(=O)(NC1CCC1)c1ccc(-c2nc(-c3ccc(OC(F)F)cc3)n3c2CCO[C@H](CF)C3)cc1 [Example 60],,4.6 nM
CC1(NS(=O)(=O)c2ccc(-c3nc(-c4ccc(OC(F)F)cc4)n4c3CCO[C@H](CF)C4)cc2)CCC1 [Example 61],,3.7 nM
"COc1ccc(-c2nc(-c3ccc(S(=O)(=O)NC(C)C)cc3)c3n2C[C@@H](C)OCC3)cc1F [Example 62, (R)—N-isopropyl-4-(3-(3-fluoro-4-methoxyphenyl)-6-methyl-5,6,8,9-tetrahydroimidazo[1,5-d][1,4]oxazepin-1-yl)benzenesulfonamide]",,4.3 nM
COc1ccc(-c2nc(-c3ccc(S(=O)(=O)NC(C)(C)C)cc3)c3n2C[C@@H](C)OCC3)cc1F [Example 63],,3.9 nM
Cc1ccc(-c2nc(-c3ccc(S(=O)(=O)NC(C)(C)C)cc3)c3n2C[C@@H](C)OCC3)cc1F [Example 64],,4.5 nM
Cc1ccc(-c2nc(-c3ccc(S(=O)(=O)NC(C)C)cc3)c3n2C[C@@H](C)OCC3)cc1F [Example 65],,6.7 nM
C[C@@H]1Cn2c(-c3ccc(OC(F)F)c(F)c3)nc(-c3ccc(S(=O)(=O)NC(C)(C)C)cc3)c2CCO1 [Example 66],,10.9 nM
